Measurements taken from ChEMBL document CHEMBL4321827, “Development and Therapeutic Potential of Selenazo Compounds” (J Med Chem, 2020).

Key:
[1] = Inhibition of Candida albicans H+-ATPase
Histone deacetylase 9 = Histone deacetylase 9 (Homo sapiens, UniProt Q9UKV0); assay: Inhibition of human recombinant HDAC9 using acetyl-Lys(trifluoroacetyl)-AMC substrate by fluorescence based assay
[2] = Inhibition of Aspergillus fumigatus TrxR
[3] = biological target: T1, Protein deacetylase HDAC6 (Homo sapiens, UniProt Q9UBN7); assay: Inhibition of human recombinant HDAC6 using RHKKAc-AMC substrate by fluorescence based assay
T1 sequence (Q9UBN7 whole entry): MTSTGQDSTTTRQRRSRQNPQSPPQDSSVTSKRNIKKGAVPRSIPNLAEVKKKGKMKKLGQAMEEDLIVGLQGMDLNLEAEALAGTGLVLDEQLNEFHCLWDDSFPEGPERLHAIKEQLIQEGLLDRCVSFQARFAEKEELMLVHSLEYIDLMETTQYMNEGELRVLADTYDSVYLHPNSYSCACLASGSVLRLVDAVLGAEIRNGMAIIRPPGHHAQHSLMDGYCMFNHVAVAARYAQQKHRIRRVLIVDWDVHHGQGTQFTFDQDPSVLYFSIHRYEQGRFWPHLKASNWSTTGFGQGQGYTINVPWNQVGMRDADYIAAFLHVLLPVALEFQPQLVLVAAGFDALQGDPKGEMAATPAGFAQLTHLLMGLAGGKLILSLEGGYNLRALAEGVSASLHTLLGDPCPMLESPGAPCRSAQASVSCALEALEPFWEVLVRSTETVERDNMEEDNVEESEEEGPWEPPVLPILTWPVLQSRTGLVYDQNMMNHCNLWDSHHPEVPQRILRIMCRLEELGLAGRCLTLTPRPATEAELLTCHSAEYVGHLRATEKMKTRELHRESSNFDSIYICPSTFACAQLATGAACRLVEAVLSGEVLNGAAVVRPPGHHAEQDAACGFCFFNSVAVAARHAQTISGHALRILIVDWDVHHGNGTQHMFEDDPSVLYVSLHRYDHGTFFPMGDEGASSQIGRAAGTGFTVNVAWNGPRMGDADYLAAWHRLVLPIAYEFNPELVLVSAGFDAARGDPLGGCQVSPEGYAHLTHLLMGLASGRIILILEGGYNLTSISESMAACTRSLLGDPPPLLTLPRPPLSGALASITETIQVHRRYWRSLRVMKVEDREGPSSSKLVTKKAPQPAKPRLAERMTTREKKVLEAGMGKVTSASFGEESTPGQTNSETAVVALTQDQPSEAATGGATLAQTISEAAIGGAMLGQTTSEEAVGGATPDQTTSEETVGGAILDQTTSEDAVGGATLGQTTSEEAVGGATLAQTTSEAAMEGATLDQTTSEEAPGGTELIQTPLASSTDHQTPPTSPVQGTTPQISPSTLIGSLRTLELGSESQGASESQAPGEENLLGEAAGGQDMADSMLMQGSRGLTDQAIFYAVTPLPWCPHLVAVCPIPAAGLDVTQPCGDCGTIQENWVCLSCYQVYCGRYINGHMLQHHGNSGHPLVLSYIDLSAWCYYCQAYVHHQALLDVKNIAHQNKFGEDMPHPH

Histone deacetylase 5 = Histone deacetylase 5 (Homo sapiens, UniProt Q9UQL6); assay: Inhibition of human recombinant HDAC5 using acetyl-Lys(trifluoroacetyl)-AMC substrate by fluorescence based assay
[4] = Inhibition of Bacillus anthracis TrxR
[5] = Inhibition of inositol monophosphatase (unknown origin); design: species or system Homo sapiens
Cryptosporidium parvum = assay: Substrate activity at Cryptosporidium parvum glucose 6-phosphate isomerase
Rattus norvegicus = species on record: Rattus norvegicus; assay: Effect on SOD activity in brain of rat with ischemia/reperfusion injury assessed as enzyme activity per mg protein; assay type: functional

Chain of Histone deacetylase 5 (Q9UQL6 whole entry): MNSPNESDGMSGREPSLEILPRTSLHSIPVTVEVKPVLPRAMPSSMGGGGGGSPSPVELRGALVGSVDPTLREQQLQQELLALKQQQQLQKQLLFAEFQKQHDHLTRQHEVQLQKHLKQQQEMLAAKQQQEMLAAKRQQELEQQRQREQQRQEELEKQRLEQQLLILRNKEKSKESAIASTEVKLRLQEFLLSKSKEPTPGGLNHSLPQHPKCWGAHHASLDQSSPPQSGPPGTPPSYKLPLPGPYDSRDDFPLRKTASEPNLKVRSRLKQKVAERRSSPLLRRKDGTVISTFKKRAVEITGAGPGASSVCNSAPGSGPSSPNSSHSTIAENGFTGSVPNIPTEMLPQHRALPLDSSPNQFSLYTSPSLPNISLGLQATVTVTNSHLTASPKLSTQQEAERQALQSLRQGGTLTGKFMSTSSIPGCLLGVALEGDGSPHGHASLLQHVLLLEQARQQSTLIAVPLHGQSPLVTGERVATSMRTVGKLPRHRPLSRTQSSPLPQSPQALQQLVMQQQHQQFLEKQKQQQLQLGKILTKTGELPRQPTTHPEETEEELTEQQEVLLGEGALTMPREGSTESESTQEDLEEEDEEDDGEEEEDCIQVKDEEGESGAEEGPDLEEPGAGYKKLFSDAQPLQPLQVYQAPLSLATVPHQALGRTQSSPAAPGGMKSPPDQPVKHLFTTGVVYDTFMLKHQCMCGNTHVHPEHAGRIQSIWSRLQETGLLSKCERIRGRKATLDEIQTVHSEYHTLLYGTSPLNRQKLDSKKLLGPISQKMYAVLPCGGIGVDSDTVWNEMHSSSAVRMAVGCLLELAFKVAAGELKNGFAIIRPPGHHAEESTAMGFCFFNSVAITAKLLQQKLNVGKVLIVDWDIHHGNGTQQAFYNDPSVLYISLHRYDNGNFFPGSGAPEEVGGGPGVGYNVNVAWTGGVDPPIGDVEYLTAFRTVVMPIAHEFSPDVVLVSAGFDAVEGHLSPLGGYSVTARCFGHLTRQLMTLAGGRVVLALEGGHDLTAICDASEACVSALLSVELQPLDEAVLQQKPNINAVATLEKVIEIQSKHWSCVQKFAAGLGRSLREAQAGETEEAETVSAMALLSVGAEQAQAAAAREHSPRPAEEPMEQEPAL
Chain of Histone deacetylase 9 (Q9UKV0 whole entry): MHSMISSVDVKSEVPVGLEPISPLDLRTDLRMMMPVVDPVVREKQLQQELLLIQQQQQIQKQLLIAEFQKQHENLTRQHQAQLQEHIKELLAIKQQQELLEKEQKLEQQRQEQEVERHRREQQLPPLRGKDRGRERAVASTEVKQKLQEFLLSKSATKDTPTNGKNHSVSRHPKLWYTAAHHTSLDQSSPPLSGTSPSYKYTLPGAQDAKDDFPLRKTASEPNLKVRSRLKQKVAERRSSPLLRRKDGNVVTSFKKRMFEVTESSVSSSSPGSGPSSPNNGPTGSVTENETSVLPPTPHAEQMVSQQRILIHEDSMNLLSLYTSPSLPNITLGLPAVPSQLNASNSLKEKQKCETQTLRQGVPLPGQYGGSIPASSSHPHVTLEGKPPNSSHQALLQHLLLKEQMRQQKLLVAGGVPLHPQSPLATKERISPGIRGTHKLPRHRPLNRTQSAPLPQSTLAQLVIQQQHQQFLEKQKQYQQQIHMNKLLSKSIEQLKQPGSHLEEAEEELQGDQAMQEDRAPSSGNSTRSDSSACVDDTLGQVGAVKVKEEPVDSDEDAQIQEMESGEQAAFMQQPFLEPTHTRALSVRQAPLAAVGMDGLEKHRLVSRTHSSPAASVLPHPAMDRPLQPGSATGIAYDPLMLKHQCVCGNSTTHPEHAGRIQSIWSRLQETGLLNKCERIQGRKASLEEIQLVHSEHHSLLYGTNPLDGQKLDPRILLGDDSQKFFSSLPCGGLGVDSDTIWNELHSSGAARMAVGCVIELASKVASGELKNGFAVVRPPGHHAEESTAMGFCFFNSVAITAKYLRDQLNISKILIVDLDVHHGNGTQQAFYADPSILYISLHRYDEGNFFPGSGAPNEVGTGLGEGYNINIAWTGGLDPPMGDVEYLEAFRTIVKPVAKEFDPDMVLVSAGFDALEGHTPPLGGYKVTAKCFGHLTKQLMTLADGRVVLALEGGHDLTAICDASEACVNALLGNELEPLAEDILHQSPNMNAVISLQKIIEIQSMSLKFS

## O=c1c2ccccc2[se]n1-c1ccccc1 [EBSELEN]
[1]
  IC50: 3.9 µM
Histone deacetylase 9
  IC50: 3.7 µM
[2]
  Ki: 0.22 µM
[3]
  IC50: 6.9 µM
Histone deacetylase 5
  IC50: 3.4 µM
[4]
  IC50: 1 µM
[5]
  IC50: 1.5 µM
Cryptosporidium parvum
  Km: 309 µM
Rattus norvegicus
  Activity: 0.105 U
